According to paper PMC3093256, “Synthesis of 1-Substituted Carbazolyl-1,2,3,4-tetrahydro- and Carbazolyl-3,4-dihydro-β-carboline Analogs as Potential Antitumor Agents” (Marine Drugs, 2011):
Converted amounts (≈) assume the structure as drawn.

Experiments:
Hepa (human hepatoma) = assay: Cytotoxicity assay, Hepa cells; assay type: cell-based; conditions: 72 h, 3 days incubation, by interpolation
Method: (§1) The cytotoxic activities of compounds against KB (human mouth epidermoid carcinoma), DLD (human colon adenocarcinoma), NCI-H661 (human lung large cell carcinoma), Hepa (human hepatoma), and HepG2/A2 (human hepatoblastoma) cells were assayed by the […] assay as previously described. The cells for assay were cultured in RPMI-1640 medium supplemented with […] in an incubator at 37 °C. The cytotoxicity assay depends on the binding of methylene blue to fixed monolayers of cells at pH 8.5, washing the monolayer, and releasing the dye by lowering the pH value. Samples and control standard drugs were prepared at a concentration of 1, 10, 40, and 100 μg/mL. After seeding 2880 cells/well in a 96-well microplate for 3 h, 20 μL of sample or standard agent was placed in each well and incubated at 37 °C for 3 days. After removing the medium from the microplates, the cells were fixed with 10% formaldehyde in 0.9% saline for 30 min, then dyed with 1% (w/v) methylene blue in 0.01 M borate-buffer (100 μL/well) for 30 min. The 96-well plate was dipped into a 0.01 M borate-buffer solution four times in order to remove the dye. Then, 100 μL/well of EtOH-0.1 M HCl (1:1) was added as a dye eluting solvent, and the absorbance was measured on a microtiter plate reader (Dynatech, MR 7000) at a wavelength of 650 nm. […] Doxorubicin was used as a standard compound.

[1] = tested on: KB (human mouth epidermoid carcinoma); assay: Cytotoxicity assay, KB cells; assay type: cell-based; conditions: 72 h, 3 days incubation, by interpolation
Method: as §1

[2] = target: T1, human DNA topoisomerase I (Homo sapiens, UniProt P11387); assay: Relaxation assay of topoisomerase I (supercoiled pBR322); assay type: biochemical; conditions: five concentrations 5, 10, 25, 50 and 100 μg/mL; read-out: Inhibition of DNA topoisomerase I IC50 (converted)
T1 construct: purchased TopoGen
T1 sequence (P11387 1-765): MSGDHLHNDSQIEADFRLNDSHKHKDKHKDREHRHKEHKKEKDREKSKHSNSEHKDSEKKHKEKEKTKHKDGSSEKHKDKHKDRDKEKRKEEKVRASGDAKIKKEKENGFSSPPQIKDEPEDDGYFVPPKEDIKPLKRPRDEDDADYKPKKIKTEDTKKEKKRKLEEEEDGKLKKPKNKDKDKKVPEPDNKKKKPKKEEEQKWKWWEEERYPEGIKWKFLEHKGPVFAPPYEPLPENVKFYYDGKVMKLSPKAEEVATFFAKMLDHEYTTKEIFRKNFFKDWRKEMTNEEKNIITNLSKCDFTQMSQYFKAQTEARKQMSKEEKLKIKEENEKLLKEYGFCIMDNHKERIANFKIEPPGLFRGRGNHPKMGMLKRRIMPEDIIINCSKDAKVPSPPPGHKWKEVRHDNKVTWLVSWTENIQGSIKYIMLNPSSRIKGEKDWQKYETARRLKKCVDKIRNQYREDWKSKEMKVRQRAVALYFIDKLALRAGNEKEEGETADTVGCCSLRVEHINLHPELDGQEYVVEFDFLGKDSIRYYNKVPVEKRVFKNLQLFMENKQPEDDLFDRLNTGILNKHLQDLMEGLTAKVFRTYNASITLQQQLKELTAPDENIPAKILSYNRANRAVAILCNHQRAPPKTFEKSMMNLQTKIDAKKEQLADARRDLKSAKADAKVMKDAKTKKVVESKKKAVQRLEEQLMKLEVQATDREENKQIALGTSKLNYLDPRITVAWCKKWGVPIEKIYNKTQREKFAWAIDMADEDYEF
Method: (§2) Topoisomerases I and II (topo I and II) assays were measured by assessing relaxation of supercoiled pBR322 plasmid DNA according to [24]. […] In summary, topo I (TopoGen) was mixed with the test sample and 10° volume of assay buffer (100 mM Tris-HCl, 10 mM EDTA, 1.5 M NACl, 1.0% BSA, […], and 50% glycerol), and then supercoiled DNA (pBR322) was added. In topo II assay, the mixture contained test sample and buffer including 50 mM Tris-HCl, 120 mM KCl, 10 mM MgCl2, 0.5 mM ATP, 0.5 mM dithiothreitol, 2 μg BSA, pBR322 plasmid DNA (0.25 μg), and 3U of topo II (TopoGen) in final volume of 20 μL. After incubation of topo I or topo II mixture for 30 min at 37 °C, 2 λ 10% SDS and 2.5 λ proteinase K were added for 1 h. The reaction mixtures were electrophoresed on a 2% agarose gel (50 V, 20 min; 100 V, 30 min; 110 V, 30 min) and stained with ethidium bromide. Finally, by a densitometer of ImageMaster® (Fujifilm thermal imaging system, FTI-500), the gels were directly scanned and the area representing supercoiled DNA was calculated.

[3] = target: T2, human DNA topoisomerase II (Homo sapiens, UniProt P11388); assay: Relaxation assay of topoisomerase II (supercoiled pBR322); assay type: biochemical; conditions: for inhibition of DNA topoisomerase II (in words): compared with etoposide; for IC50: five concentrations 5, 10, 25, 50 and 100 μg/mL, read-out: Inhibition of DNA topoisomerase II IC50 (converted); for fold more potent against topoisomerase II compared to etoposide: relative to etoposide
T2 construct: purchased TopoGen
Method: as §2

[4] = tested on: DLD (human colon adenocarcinoma); assay: Cytotoxicity assay, DLD cells; assay type: cell-based; conditions: for IC50: Homo sapiens, 72 h, 3 days incubation, by interpolation
Method: as §1

[5] = tested on: HepG2/A2 (human hepatoma); assay: Cytotoxicity assay, HepG2/A2 cells; assay type: cell-based; conditions: for IC50: Homo sapiens, 72 h, HepG2/A2 cells, 3 days incubation, by interpolation
Method: as §1

[6] = tested on: NCI-H661 (human lung large cell carcinoma); assay: Cytotoxicity assay, NCI-H661 cells; assay type: cell-based; conditions: 72 h, 3 days incubation, by interpolation
Method: as §1

T2 sequence (P11388 whole entry): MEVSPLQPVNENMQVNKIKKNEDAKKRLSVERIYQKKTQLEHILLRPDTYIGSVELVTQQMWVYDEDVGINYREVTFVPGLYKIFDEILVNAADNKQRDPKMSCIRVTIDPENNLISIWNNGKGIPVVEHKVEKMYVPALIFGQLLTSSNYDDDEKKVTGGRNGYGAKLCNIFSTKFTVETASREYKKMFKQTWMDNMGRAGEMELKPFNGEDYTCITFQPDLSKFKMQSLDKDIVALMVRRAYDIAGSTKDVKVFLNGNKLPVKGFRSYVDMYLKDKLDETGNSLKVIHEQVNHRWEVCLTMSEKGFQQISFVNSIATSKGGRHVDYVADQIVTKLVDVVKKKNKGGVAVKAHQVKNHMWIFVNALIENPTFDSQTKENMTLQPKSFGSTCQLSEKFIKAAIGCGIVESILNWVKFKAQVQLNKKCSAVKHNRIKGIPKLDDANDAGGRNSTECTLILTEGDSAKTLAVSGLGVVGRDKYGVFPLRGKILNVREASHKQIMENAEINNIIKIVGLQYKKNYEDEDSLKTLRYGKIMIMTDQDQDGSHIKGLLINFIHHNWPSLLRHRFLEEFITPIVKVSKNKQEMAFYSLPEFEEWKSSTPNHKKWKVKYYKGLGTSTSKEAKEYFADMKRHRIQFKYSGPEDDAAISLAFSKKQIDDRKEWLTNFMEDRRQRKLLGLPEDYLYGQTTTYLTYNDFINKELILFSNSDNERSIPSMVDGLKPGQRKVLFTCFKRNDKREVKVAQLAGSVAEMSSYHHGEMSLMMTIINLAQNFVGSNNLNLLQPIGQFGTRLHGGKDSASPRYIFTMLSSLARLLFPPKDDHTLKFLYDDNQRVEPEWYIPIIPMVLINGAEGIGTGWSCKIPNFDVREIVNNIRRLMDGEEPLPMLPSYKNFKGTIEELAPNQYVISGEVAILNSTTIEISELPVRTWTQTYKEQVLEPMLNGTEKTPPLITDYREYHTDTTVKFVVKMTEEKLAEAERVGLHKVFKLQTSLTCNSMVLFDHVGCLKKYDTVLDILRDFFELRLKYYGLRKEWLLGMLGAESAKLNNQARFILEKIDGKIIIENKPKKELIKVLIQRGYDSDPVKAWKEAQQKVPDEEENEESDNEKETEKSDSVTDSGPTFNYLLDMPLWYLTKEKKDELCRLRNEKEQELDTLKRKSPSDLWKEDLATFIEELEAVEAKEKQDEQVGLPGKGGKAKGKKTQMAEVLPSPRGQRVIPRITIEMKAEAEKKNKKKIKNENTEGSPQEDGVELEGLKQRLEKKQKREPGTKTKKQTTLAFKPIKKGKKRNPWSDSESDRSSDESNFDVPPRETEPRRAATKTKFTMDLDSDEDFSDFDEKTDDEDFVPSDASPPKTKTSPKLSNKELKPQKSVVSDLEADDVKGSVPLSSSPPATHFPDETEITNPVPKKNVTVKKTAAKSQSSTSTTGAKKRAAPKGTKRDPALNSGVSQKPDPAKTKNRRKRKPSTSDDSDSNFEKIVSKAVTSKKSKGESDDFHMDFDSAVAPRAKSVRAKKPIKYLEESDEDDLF

| Compound | IC50 (Hepa (human hepatoma)) [µg/mL] | melting point [°C] | IC50 [1] [µg/mL] | IC50 [2] [µM] | inhibition of DNA topoisomerase II (in words) [3] | IC50 [3] [µM] | fold more potent against topoisomerase II compared to etoposide [3] | activity in DLD assay (in words) [4] | IC50 [4] [µg/mL] | IC50 [5] [µg/mL] | IC50 [6] [µg/mL] | cytotoxicity against HepG2/A2 (in words) ([5]; HepG2/A2 tumor cells) |
| --- | --- | --- | --- | --- | --- | --- | --- | --- | --- | --- | --- | --- |
| CC(C)CCn1c2ccccc2c2cc(C3NCCc4c3[nH]c3ccccc43)ccc21 (stereo not drawn) [Compound 9, 1-(9′-[3″-Methylbutyl]-3′-carbazolyl)-1,2,3,4-tetrahydro-β-carboline] | 1.12 (≈ 2.75 µM) | 99 to 101 | 2.96 (≈ 7.26 µM) | 236 | most potent | 6.87 | 10- to 15 fold |  |  |  |  |  |
| CCCCCCCCn1c2ccccc2c2cc(C3NCCc4c3[nH]c3ccccc43)ccc21 (stereo not drawn) [Compound 11, 1-(9′-Octyl-3′-carbazolyl)-1,2,3,4-tetrahydro-β-carboline] |  | 87 to 89 | > 20 | > 222 |  | 66.7 |  | active | 1.57 (≈ 3.49 µM) | 20.7 (≈ 46 µM) | > 20 |  |
| CCCCCCCCn1c2ccccc2c2cc(C3=NCCc4c3[nH]c3ccccc43)ccc21 [Compound 12, 1-(9′-Octyl-3′-carbazolyl)-3,4-dihydro-β-carboline] |  | 91 to 92 | 9.13 (≈ 20.4 µM) | > 223 |  | 64.8 |  |  | 2.55 (≈ 5.7 µM) | 30.1 (≈ 67.2 µM) | 5.28 (≈ 11.8 µM) |  |
| CCCCCn1c2ccccc2c2cc(C3=NCCc4c3[nH]c3ccccc43)ccc21 [Compound 8, 1-(9′-Pentyl-3′-carbazolyl)-3,4-dihydro-β-carboline] |  | 97 to 98 | > 20 | 143 |  | 54.2 |  |  | 1.29 (≈ 3.18 µM) | 5.4 (≈ 13.3 µM) | 3.39 (≈ 8.36 µM) | active |
| CCn1c2ccccc2c2cc(C3=NCCc4c3[nH]c3ccccc43)ccc21 [Compound 2, 1-(9′-Ethyl-3′-carbazolyl)-3,4-dihydro-β-carboline] |  | 175 to 177 | 0.71 (≈ 1.95 µM) | > 275 |  | 23.4 |  |  | 1.09 (≈ 3 µM) | 0.6 (≈ 1.65 µM) | 0.84 (≈ 2.31 µM) |  |
| CCCCCn1c2ccccc2c2cc(C3NCCc4c3[nH]c3ccccc43)ccc21 (stereo not drawn) [Compound 7, 1-(9′-Pentyl-3′-carbazolyl)-1,2,3,4-tetrahydro-β-carboline] |  | 129 to 130 | 3.45 (≈ 8.46 µM) | 218 | most potent | 6.62 |  |  | 3.75 (≈ 9.2 µM) | 20.5 (≈ 50.3 µM) | 0.22 (≈ 0.54 µM) |  |
| CCC(C)n1c2ccccc2c2cc(C3NCCc4c3[nH]c3ccccc43)ccc21 (stereo not drawn) [Compound 5, 1-(9′-[1″-Methyl]propyl-3′-carbazolyl)-1,2,3,4-tetrahydro-β-carboline] | 2.25 (≈ 5.72 µM) | 127 to 130 | 3 (≈ 7.62 µM) | > 254 |  | 25.4 |  |  |  |  |  |  |
| CCn1c2ccccc2c2cc(C3NCCc4c3[nH]c3ccccc43)ccc21 (stereo not drawn) [Compound 1, 1-(9′-Ethyl-3′-carbazolyl)-1,2,3,4-tetrahydro-β-carboline] |  | 240 to 242 | 3.47 (≈ 9.49 µM) | > 274 |  | 26 |  |  | 1.69 (≈ 4.62 µM) |  | 1.82 (≈ 4.98 µM) |  |
| CCC(C)n1c2ccccc2c2cc(C3=NCCc4c3[nH]c3ccccc43)ccc21 (stereo not drawn) [Compound 6, 1-(9′-[1″-Methyl]propyl-3′-carbazolyl)-3,4-dihydro-β-carboline] | 2.67 (≈ 6.82 µM) | 151 to 154 | 0.48 (≈ 1.23 µM) | > 255 |  | 66.4 |  |  |  |  |  |  |
| CC(C)CCn1c2ccccc2c2cc(C3=NCCc4c3[nH]c3ccccc43)ccc21 [Compound 10, 1-(9′-[3″-Methylbutyl]-3′-carbazolyl)-3,4-dihydro-β-carboline] | 4.4 (≈ 10.8 µM) | 135 to 137 | 3.13 (≈ 7.72 µM) | 165 | most potent | 6.66 | 10- to 15 fold |  |  |  |  |  |
| CCCCCCCCCCn1c2ccccc2c2cc(C3NCCc4c3[nH]c3ccccc43)ccc21 (stereo not drawn) [Compound 13, 1-(9′-Decyl-3′-carbazolyl)-1,2,3,4-tetrahydro-β-carboline] |  | 102 to 104 | 6.36 (≈ 13.3 µM) | > 209 |  | 58.6 |  |  | 10.4 (≈ 21.8 µM) | > 60 | 13.9 (≈ 29.1 µM) |  |
| CCCn1c2ccccc2c2cc(C3NCCc4c3[nH]c3ccccc43)ccc21 (stereo not drawn) [Compound 3, 1-(9′-Propyl-3′-carbazolyl)-1,2,3,4-tetrahydro-β-carboline] |  | 110 to 112 | 1.84 (≈ 4.85 µM) | 124 | most potent | 4.22 | 10- to 15 fold |  | 1.58 (≈ 4.16 µM) | 6.1 (≈ 16.1 µM) | 2.14 (≈ 5.64 µM) |  |
| CCCn1c2ccccc2c2cc(C3=NCCc4c3[nH]c3ccccc43)ccc21 [Compound 4, 1-(9′-Propyl-3′-carbazolyl)-3,4-dihydro-β-carboline] |  | 126 to 128 | 2.72 (≈ 7.21 µM) | > 265 | most potent | 5.56 | 10- to 15 fold |  | 2.16 (≈ 5.72 µM) | 5.1 (≈ 13.5 µM) | 5.02 (≈ 13.3 µM) |  |
